What was measured:
Erysiphe graminis = conditions: 500 ppm, spray on wheat (Norin-61-go) at 1.5-leaf stage, preventive, 6 to 7 days after inoculation
sheath blight of rice = conditions: as disclosed in Patent Document 2 (JP-A-2005-179234); cited from earlier work
Botrytis cinerea = assay: Test on preventive effect against kidney bean gray mold; format: in vivo; conditions: 500 ppm, spray on kidney bean (Taisyou Kintoki), 3 to 4 days after inoculation

melting point	Compound	controlling index (area of sporulation) (Erysiphe graminis)	effect against sheath blight of rice (sheath blight of rice)	controlling index (length of lesions) (Botrytis cinerea)
	CC(C)(NC(=O)c1ccncc1F)C(=O)c1ccc(-c2ccc(OC(F)(F)F)cc2)cc1 [Comparative Compound 1, 3-fluoro-N-(2-methyl-1-oxo-1-(4′-(trifluoromethoxy)biphenyl-4-yl)propan-2-yl)isonicotinamide]	1 (Length of lesions, number of lesions or area of sporulation is at least 70% of non-treated plot)	effective	1 (Length of lesions, number of lesions or area of sporulation is at least 70% of non-treated plot)
130 to 134 °C	Cc1c(C(=O)C(C)(C)NC(=O)c2ncccc2C(F)(F)F)ccc2c1OC(F)(F)O2 [compound No. 2-1, N-[2-[(2,2-difluoro-4-methyl-1,3-benzodioxolan-5-yl)carbonyl]-2-propyl]-3-trifluoromethyl-2-pyridinecarboxamide]			

From patent US20100222337A1, “FUNGICIDAL COMPOSITION CONTAINING CARBOXYLIC ACID AMIDE DERIVATIVE” (Ishihara Sangyo Kaisha, Ltd., priority 2005, published 2010)
